Results as given in ChEMBL document CHEMBL5696442, “Discovery of type II inhibitors of TGFβ-activated kinase 1 (TAK1) and mitogen-activated protein kinase kinase kinase kinase 2 (MAP4K2)” (J Med Chem, 2015).
The source made the active and inactive calls. The rule behind the calls is not given here.

How the values were obtained:
[1] = molecular target: RAC-alpha serine/threonine-protein kinase (Homo sapiens) (UniProt P31749); test: Inhibition of AKT1 (unknown origin) at 10 uM by Ambit Kinomescan binding assay
Chain of RAC-alpha serine/threonine-protein kinase (Homo sapiens) (P31749 whole entry): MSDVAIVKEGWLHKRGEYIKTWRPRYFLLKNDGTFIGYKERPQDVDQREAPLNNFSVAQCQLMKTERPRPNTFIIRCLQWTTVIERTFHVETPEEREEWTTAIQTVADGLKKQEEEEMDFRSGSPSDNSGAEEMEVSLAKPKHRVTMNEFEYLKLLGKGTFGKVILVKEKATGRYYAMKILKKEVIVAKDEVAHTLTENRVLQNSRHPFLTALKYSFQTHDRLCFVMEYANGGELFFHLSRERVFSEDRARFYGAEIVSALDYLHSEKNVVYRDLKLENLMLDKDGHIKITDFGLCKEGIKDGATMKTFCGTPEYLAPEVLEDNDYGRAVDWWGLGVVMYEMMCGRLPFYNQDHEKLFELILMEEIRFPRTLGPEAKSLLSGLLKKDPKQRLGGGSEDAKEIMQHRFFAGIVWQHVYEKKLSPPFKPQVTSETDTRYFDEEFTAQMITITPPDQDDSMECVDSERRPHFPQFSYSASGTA

[2] = molecular target: T1, Aurora kinase C (Homo sapiens) (UniProt Q9UQB9); test: Inhibition of AURKC (unknown origin) at 10 uM by Ambit Kinomescan binding assay
T1 sequence (whole entry): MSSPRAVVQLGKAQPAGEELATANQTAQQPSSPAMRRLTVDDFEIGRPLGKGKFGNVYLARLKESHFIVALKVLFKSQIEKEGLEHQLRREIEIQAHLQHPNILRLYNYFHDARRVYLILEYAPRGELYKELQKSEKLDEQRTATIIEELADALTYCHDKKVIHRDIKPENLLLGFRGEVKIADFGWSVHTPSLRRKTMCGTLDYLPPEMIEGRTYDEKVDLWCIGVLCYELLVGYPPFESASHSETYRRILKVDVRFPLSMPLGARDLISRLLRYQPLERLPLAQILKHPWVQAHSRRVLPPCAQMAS

[3] = molecular target: Serine/threonine-protein kinase 25 (Homo sapiens) (UniProt O00506); test: Inhibition of YSK1 (unknown origin) at 10 uM by Ambit Kinomescan binding assay
Chain of Serine/threonine-protein kinase 25 (Homo sapiens) (O00506 whole entry, looked up): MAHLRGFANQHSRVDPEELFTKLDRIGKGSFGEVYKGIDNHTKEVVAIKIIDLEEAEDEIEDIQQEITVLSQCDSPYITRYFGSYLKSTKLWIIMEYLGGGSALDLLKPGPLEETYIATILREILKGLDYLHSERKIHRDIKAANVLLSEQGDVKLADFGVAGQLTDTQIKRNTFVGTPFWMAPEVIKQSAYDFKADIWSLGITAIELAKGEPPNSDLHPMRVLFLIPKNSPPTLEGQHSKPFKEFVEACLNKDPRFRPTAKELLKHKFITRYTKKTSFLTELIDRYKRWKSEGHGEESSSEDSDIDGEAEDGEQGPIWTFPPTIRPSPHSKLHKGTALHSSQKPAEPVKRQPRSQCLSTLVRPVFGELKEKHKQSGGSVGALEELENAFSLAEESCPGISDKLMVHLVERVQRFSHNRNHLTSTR

[4] = molecular target: Mitogen-activated protein kinase 3 (Homo sapiens) (UniProt P27361); test: Inhibition of Erk1 Lys2 labeling site harbouring DLKPSNLLINTTCDLK in human A-375 cells at 0.05 uM by KiNativ Profiling analysis relative to control; type: cell-based
Chain of Mitogen-activated protein kinase 3 (Homo sapiens) (P27361 whole entry): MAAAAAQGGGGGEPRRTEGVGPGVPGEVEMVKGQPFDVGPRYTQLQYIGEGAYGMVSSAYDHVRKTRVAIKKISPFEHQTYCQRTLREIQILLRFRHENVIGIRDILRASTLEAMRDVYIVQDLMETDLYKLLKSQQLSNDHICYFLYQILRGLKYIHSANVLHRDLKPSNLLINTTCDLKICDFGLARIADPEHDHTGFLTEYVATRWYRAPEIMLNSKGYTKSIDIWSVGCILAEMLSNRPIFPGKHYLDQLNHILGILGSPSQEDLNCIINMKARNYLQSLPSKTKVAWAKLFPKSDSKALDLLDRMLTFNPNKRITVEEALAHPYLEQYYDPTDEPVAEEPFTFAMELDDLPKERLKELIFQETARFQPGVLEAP

[5] = molecular target: T2, Mitogen-activated protein kinase kinase kinase 6 (Homo sapiens) (UniProt O95382); test: Inhibition of MAP3K6 Lys1 labeling site harbouring IAIKEIPERDSR in human A-375 cells at 0.05 uM by KiNativ Profiling analysis relative to control; type: cell-based
T2 sequence (whole entry): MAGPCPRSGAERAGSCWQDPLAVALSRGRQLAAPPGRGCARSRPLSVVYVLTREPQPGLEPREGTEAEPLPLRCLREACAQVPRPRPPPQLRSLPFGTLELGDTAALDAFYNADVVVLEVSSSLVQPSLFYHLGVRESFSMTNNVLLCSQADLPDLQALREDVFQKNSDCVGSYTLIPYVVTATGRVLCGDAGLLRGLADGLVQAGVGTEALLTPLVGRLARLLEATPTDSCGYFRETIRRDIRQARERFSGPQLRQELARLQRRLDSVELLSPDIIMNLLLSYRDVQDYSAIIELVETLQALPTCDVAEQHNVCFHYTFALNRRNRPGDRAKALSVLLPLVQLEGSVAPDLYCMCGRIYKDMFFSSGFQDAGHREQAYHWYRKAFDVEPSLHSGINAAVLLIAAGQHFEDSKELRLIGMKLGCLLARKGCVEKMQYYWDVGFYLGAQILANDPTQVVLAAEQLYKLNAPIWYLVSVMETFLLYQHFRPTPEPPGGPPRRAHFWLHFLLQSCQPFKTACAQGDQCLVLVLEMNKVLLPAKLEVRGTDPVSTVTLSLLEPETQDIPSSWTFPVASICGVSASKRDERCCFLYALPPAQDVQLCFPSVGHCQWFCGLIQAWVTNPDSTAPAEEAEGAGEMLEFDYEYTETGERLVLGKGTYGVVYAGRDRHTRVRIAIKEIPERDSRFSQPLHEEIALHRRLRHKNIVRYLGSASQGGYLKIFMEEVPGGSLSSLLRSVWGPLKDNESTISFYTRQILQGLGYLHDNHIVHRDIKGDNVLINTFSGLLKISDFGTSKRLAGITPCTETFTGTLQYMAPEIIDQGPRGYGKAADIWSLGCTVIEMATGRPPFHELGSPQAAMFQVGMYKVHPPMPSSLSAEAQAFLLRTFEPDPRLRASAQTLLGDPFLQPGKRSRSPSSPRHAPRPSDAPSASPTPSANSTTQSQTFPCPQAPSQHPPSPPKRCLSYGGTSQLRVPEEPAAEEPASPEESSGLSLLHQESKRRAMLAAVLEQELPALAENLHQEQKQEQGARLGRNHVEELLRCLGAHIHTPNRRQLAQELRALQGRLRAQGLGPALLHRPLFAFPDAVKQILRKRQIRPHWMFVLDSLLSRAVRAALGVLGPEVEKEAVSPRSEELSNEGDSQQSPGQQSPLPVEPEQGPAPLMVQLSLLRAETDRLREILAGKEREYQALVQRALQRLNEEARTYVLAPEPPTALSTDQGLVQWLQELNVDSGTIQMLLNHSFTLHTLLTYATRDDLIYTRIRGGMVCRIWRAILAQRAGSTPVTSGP

[6] = Inhibition of MARK2/3 K2 labeling site in human Huh-7 cells at 10 uM by KiNativ Profiling analysis relative to control; details: condition cancer
[7] = molecular target: Serine/threonine-protein kinase Nek6 (Homo sapiens) (UniProt Q9HC98); test: Inhibition of NEK6 ACT labeling site in human Huh-7 cells at 10 uM by KiNativ Profiling analysis relative to control; type: cell-based
Chain of Serine/threonine-protein kinase Nek6 (Homo sapiens) (Q9HC98 whole entry): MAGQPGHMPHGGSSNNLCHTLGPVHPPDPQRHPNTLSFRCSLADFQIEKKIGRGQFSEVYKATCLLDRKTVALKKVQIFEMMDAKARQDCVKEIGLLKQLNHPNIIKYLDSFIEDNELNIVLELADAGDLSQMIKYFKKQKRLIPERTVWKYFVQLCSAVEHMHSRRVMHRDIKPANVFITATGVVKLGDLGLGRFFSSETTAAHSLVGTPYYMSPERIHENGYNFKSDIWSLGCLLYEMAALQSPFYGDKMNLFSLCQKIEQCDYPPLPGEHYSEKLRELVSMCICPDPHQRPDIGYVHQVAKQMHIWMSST

[8] = molecular target: Serine/threonine-protein kinase Chk2 (Homo sapiens) (UniProt O96017); test: Inhibition of CHK2 K2 labeling site in human Huh-7 cells at 1 uM by KiNativ Profiling analysis relative to control; type: cell-based
Chain of Serine/threonine-protein kinase Chk2 (Homo sapiens) (O96017 whole entry): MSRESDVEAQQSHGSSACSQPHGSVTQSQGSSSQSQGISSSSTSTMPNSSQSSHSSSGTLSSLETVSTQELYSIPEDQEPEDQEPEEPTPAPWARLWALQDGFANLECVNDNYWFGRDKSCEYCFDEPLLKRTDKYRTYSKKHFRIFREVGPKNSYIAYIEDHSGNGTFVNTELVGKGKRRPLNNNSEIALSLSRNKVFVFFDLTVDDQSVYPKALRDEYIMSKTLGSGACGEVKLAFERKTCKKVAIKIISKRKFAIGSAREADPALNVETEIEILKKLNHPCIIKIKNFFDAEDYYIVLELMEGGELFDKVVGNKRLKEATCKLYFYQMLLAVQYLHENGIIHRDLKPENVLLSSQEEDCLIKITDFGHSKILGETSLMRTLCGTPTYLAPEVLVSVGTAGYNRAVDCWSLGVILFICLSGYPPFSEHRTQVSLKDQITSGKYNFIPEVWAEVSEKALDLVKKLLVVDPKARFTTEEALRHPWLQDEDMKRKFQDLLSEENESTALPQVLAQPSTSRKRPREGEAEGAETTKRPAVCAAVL

[9] = molecular target: Tyrosine-protein kinase Fes/Fps (Homo sapiens, UniProt P07332); test: Inhibition of FES (unknown origin) at 10 uM by Ambit Kinomescan binding assay relative to control; values are per cent of control
Chain of Tyrosine-protein kinase Fes/Fps (P07332 whole entry, canonical isoform): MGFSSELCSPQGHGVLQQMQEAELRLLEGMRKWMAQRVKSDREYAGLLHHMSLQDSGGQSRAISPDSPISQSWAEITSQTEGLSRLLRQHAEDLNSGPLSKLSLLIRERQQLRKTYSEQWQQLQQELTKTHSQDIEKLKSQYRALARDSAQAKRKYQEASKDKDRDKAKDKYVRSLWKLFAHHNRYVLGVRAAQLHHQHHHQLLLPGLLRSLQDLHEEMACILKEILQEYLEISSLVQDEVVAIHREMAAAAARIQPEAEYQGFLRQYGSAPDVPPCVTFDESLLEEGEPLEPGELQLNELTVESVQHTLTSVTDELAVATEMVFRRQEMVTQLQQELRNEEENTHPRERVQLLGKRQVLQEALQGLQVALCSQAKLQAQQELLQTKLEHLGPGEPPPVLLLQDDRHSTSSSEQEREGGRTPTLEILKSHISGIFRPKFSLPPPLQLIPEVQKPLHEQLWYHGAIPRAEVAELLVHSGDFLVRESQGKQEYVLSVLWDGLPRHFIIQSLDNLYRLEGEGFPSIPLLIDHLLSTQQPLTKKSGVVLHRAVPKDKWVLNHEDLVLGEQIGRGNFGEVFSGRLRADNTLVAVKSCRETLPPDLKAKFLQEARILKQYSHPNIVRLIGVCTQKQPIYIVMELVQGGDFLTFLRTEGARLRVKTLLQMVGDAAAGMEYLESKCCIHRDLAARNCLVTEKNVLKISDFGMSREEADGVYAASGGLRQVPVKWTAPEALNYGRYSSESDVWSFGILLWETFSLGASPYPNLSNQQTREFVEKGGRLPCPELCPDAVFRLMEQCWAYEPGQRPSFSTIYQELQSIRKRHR

[10] = molecular target: Phosphatidylinositol 4,5-bisphosphate 3-kinase catalytic subunit beta isoform (Homo sapiens) (UniProt P42338); test: Inhibition of PIK3CB ATP labeling site harbouring VFGEDSVGVIFKNGDDLRQDMLTLQMLR in human Huh-7 cell lysate at 1 uM by KiNativ Profiling analysis relative to control; type: subcellular
Chain of Phosphatidylinositol 4,5-bisphosphate 3-kinase catalytic subunit beta isoform (Homo sapiens) (P42338 whole entry, looked up, canonical isoform): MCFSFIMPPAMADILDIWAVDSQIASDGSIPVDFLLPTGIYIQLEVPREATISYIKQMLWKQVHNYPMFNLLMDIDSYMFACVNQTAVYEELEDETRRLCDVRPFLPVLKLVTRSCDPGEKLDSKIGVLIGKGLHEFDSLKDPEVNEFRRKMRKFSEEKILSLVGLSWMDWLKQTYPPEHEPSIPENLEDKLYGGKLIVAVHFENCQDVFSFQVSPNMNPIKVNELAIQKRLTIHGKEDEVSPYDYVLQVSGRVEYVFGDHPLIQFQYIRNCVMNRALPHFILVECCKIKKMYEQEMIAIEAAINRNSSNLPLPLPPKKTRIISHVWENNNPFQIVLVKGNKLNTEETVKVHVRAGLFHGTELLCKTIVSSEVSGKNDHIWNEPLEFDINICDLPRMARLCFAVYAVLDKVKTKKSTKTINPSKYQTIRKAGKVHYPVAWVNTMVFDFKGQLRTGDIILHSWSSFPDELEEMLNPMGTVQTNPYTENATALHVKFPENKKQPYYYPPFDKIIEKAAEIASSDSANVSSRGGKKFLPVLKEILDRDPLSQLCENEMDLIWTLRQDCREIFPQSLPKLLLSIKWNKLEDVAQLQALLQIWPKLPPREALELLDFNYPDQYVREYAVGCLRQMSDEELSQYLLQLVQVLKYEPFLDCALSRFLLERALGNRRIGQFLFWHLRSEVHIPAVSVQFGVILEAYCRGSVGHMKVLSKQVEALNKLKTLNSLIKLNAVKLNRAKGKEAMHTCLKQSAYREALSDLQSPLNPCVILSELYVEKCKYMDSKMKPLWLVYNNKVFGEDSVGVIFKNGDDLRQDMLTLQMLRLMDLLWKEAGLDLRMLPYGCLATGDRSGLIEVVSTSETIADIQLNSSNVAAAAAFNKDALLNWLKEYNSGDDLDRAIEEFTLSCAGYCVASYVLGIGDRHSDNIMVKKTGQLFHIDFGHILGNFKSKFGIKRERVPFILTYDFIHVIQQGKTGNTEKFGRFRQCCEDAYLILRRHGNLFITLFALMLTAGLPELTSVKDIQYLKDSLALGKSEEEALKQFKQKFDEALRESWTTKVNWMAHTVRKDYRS

[11] = molecular target: T3, Phosphatidylinositol 5-phosphate 4-kinase type-2 alpha (Homo sapiens) (UniProt P48426); test: Inhibition of PIP4K2A ATP labeling site harbouring AKELPTLKDNDFINEGQK in human Huh-7 cell lysate at 1 uM by KiNativ Profiling analysis relative to control; type: subcellular
T3 sequence (whole entry): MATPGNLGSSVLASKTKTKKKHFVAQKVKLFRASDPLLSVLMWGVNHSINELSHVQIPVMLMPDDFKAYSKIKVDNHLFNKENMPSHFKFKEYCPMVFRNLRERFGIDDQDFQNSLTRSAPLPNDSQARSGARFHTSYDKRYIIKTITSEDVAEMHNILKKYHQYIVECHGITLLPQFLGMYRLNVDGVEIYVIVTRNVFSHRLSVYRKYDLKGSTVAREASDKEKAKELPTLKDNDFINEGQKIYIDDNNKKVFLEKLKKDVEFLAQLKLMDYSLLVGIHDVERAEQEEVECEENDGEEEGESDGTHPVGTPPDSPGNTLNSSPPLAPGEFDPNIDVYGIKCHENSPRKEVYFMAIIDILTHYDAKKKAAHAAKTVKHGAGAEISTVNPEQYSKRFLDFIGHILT

[12] = Inhibition of KHS1 Lys2 labeling site harbouring DIKGANILLTDHGDVKLADFGVAAK in human Huh-7 cells at 1 uM by KiNativ Profiling analysis relative to control; details: condition cancer

Row | SMILES | inhibition [1] | inhibition [2] | inhibition [3] | inhibition [4] [%] | inhibition [5] [%] | inhibition at 10 µM [6] [%] | inhibition [7] [%] | inhibition [8] [%] | percent of control [9] [%] | inhibition [10] [%] | inhibition [11] [%] | inhibition at 1 µM [12] [%]
1 | CCN1CCN(Cc2ccc(NC(=O)c3ccc(C)c(Oc4ccnc5[nH]ccc45)c3)cc2C(F)(F)F)CC1 | inactive | inactive | inactive | 0.9 | -3.3 | 11.8 | -3 | 17.5 | 2.2 |  |  | 
2 | CNc1cc(Oc2cc(C(=O)Nc3cc(N4CCN(C)CC4)cc(C(F)(F)F)c3)ccc2C)ncn1 |  |  |  |  |  |  |  |  |  | 15.8 | 0.1 | 19.8
